Assay results taken from paper PMC8708580, “Structure Revision and Protein Tyrosine Phosphatase Inhibitory Activity of Drazepinone” (Marine Drugs, 2021).
Read-outs that look alike come from different tables or passages of the source.

Legend:
PTP1B = molecular target: T1, PTP1B (Homo sapiens, UniProt P18031); test: PTP inhibitory activity assay, PTP1B; assay type: biochemical; settings: in vitro; Na3VO4 positive control
T1 sequence (P18031 1-435): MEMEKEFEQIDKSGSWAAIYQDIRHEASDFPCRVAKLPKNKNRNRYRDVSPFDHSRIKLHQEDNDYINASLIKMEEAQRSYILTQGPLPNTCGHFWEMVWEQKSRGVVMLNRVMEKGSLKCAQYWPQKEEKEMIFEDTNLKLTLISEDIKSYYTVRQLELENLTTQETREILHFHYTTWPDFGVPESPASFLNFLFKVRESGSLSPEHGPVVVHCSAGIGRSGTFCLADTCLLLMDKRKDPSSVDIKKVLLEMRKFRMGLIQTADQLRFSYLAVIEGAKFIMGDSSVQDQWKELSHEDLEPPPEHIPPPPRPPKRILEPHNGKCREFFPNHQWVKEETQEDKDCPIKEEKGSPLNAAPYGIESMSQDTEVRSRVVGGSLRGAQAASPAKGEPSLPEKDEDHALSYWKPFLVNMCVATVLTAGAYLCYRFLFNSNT
Procedure: Thus, the isolated compounds (+)-1 and (−)-1 were tested for their PTP inhibitory activity against PTP1B, TCPTP, SHP1, and CD45.
PTP inhibitory activity of (+)-1 and (−)-1 against PTP1B, TCPTP, SHP1, and CD45 was tested in the same way as that described in the literature.

TCPTP = molecular target: T2, TCPTP (Homo sapiens, UniProt P17706); test: PTP inhibitory activity assay, TCPTP; assay type: biochemical; settings: in vitro; Na3VO4 positive control
T2 sequence (P17706 1-415): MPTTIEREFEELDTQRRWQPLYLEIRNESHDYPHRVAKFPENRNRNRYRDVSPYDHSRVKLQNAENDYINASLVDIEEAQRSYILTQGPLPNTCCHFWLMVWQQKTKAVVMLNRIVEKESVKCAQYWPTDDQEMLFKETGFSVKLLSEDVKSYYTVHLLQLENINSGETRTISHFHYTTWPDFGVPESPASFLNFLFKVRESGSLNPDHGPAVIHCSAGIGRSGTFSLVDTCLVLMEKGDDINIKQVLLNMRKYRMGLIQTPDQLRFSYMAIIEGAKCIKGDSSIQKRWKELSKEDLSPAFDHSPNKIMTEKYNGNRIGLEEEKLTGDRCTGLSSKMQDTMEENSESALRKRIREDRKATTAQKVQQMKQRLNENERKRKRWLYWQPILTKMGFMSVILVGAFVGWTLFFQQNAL
Procedure: (§1) Protein tyrosine phosphatases (PTPs), including PTP1B, T-cell PTP (TCPTP), Src homology-2 domain-containing PTP-1 (SHP1), and CD45 PTP (CD45), a family of enzymes that hydrolytically remove phosphate groups from proteins, have attracted much attention recently for drug discovery. […] Thus, the isolated compounds (+)-1 and (−)-1 were tested for their PTP inhibitory activity against PTP1B, TCPTP, SHP1, and CD45.
(§2) PTP inhibitory activity of (+)-1 and (−)-1 against PTP1B, TCPTP, SHP1, and CD45 was tested in the same way as that described in the literature. Na3VO4 was used as the positive control.

CD45 = molecular target: T3, CD45 (Homo sapiens, UniProt P08575); test: PTP inhibitory activity assay, CD45; assay type: biochemical
T3 sequence (P08575 26-1306): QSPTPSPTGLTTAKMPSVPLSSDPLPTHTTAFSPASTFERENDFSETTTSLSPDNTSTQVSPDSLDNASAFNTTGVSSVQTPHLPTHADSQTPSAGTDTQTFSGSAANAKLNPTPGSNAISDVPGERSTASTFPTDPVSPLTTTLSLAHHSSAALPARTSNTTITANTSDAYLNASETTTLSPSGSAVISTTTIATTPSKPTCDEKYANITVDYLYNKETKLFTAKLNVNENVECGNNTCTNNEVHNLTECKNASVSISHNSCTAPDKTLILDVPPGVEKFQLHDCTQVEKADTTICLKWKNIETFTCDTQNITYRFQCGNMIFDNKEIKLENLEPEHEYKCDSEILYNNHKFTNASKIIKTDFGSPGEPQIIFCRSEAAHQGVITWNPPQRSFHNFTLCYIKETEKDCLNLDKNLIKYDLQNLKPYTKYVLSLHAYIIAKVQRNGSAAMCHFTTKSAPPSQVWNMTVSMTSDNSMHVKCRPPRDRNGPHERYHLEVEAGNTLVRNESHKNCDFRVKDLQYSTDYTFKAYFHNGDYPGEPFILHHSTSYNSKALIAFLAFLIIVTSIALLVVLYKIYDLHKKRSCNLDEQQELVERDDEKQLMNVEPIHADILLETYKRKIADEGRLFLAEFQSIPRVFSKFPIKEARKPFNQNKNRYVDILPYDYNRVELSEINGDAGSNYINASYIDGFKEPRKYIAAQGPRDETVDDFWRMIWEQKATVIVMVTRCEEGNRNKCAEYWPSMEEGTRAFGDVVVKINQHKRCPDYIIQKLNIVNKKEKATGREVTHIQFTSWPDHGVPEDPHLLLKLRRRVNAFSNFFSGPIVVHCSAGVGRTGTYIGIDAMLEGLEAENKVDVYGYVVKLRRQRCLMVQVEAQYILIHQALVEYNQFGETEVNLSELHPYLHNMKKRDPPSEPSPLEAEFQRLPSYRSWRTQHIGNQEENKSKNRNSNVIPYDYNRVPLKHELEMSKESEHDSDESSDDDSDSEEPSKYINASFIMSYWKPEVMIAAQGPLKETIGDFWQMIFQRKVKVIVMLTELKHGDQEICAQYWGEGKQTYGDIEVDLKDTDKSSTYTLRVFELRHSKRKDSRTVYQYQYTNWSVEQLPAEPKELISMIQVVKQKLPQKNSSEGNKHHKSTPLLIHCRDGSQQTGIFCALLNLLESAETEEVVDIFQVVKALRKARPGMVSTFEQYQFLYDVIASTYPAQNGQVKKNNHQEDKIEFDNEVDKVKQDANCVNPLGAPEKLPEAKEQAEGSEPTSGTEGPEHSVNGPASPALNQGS
Procedure: as §1, §2

[1] = parameters: method as in PMID 15771896; settings: at a concentration of 2.0 μg/μL; cited from earlier work
[2] = parameters: method as in PMID 15771896; settings: at a concentration of 2.0 μg/μL; cited from earlier work; remark: listed apart in the source
[3] = in vitro, Na3VO4 positive control

| Compound | IC50 (PTP1B) | IC50 PTP1B (PTP1B) | IC50 (TCPTP) | IC50 TCPTP (TCPTP) | IC50 (CD45) | IC50 CD45 (CD45; [3]) | herbicidal properties [1] | zootoxic activity [2] | IC50 (CD45; [3]) |
| --- | --- | --- | --- | --- | --- | --- | --- | --- | --- |
| CC1=CC2(C)Oc3c(-c4ccccc4)c[nH]c(=O)c3C2C1C (single isomer, unassigned; (+)) [(+)-1] | > 85.2 µM | no activity | > 85.2 µM | no activity | > 85.2 µM | no activity | – | – | – |
| CC1=CC(C)C2c3cc4ccccc4cc3OC2(C)NC1=O (stereo not shown) [drazepinone, Drazepinone] | – | – | – | – | – | – | broad-spectrum herbicidal properties | low zootoxic activity | – |
| [Na+].[Na+].[Na+].[O]=[V]([O-])([O-])[O-] [Na3VO4, reference compound] | – | – | – | 3.13 µg/mL | – | 6.25 µg/mL | – | – | – |
| CC1=CC2(C)Oc3c(-c4ccccc4)c[nH]c(=O)c3C2C1C (single isomer, unassigned; (-)) [(−)-1] | 5.32 µM | – | 42.6 µM | – | – | – | – | – | > 85.2 µM |
